Where two headings read alike, the source gives them in different places.
How the values were obtained:
[1] = test system: Septoria nodorum; assay: Spore germination test, Septoria nodorum; assay type: cell-based; conditions: Parastagonospora nodorum; 500 ppm active substance; 48 hours at 20° C.; vs untreated control; read-out: Fungitoxicity against fungi spore, Septoria nodorum (effectiveness)
Description: (§1) 50 μl of a solution or suspension containing 500 ppm of the active substance are introduced into the hollow of hollow-ground slides, together with 50 μl of a spore suspension prepared by washing the spores from an agar culture with a nutrient solution containing, per liter, 10 g of sugar, 1 g of glycol, 1 g of KH2 PO4 and 0.5 g of MgSO4.
(§2) The slides are kept at 20° C. for 48 hours in a petri dish, the base of which is covered with a moistened filter paper.
(§3) The ratio of germinated and ungerminated spores is then compared with an untreated control sample.
(§4) The effectiveness is calculated as a percentage according to the following formula: [formula]
(§5) The test set-up and procedure are the same as those described in Example 5.

[2] = test system: Fusarium nivale; assay: Spore germination test, Fusarium nivale; assay type: cell-based; conditions: Microdochium nivale; 500 ppm active substance; 48 hours at 20° C.; vs untreated control; read-out: Fungitoxicity against fungi spore, Fusarium nivale (effectiveness)
Description: as §1, §2, §3, §4, §5

[3] = test system: Penicillium glaucum; assay: Spore germination test, Penicillium glaucum; assay type: cell-based; conditions: 500 ppm active substance, 48 hours at 20° C., vs untreated control, read-out: Fungitoxicity against fungi spore, Penicillium glaucum (effectiveness)
Description: as §1, §2, §3, §4, §5

[4] = test system: Tilletia tritici; assay: Seed dressing test against wheat bunt (Tilletia tritici); assay type: in vivo; conditions: Tilletia caries, read-out: % effectiveness (percentage germination inhibition)
Description: Healthy wheat seed is uniformly infected with spores of Tilletia tritici.The infected seed is subsequently dressed carefully with the active substances according to the invention, prepared in the form of dry dressings.
After being dressed, the wheat grains are placed in dishes of damp earth. Incubation takes place in a drying cupboard at from 14° to 17° C. After 48 hours, the spores adhering to the grains are removed by pressing the grains into loam/earth.
After incubation for a further eight days at from 14° to 17° C. in the drying cupboard, the ratio of germinated and ungerminated spores as, compared with an untreated control, is determined under a binocular microscope.
The action of the active substances according to the invention, is given as percentage germination inhibition. […]

[5] = test system: Alternaria solani; assay: Spore germination test, Alternaria solani; assay type: cell-based; conditions: 500 ppm active substance, 48 hours at 20° C., vs untreated control, read-out: Fungitoxicity against fungi spore, Alternaria solani (effectiveness)
Description: as §1, §2, §3, §4, §5

[6] = test system: Botrytis cinerea; assay: Spore germination test, Botrytis cinerea; assay type: cell-based; conditions: 500 ppm active substance, 48 hours at 20° C., vs untreated control, read-out: Fungitoxicity against fungi spore, Botrytis cinerea (effectiveness)
Description: as §1, §2, §3, §4, §5

[7] = test system: Botrytis cinerea; assay: Grape juice test against Botrytis cinerea; assay type: cell-based; conditions: 10 ppm active substance
Description: 20 ml of a nutrient solution consisting of grape juice and distilled water in a weight ratio of 1:1 are poured into glass petri dishes and the active substances listed in Table 1 are added thereto in the concentrations indicated. Each test mixture is then inoculated with 50 μl of a suspension of Botrytis spores, prepared by washing the Botrytis spores from an agar culture with distilled water.
After incubation periods of 10 and 20 days, respectively, at 20° C., the extent of fungal development on the surface of the nutrient solution is assessed.
The effectiveness is calculated as a percentage, according to the following formula: [formula] […]

[8] = 240 h, 10 days at 20° C., read-out: % effectiveness after 10 days
[9] = 480 h, 20 days at 20° C., read-out: % effectiveness after 20 days

SMILES	inhibition of growth at 500 ppm [1] [%]	inhibition of growth at 500 ppm [2] [%]	inhibition of growth at 500 ppm [3] [%]	inhibition at 100 ppm [4] [%]	inhibition of growth at 500 ppm [5] [%]	inhibition of growth at 500 ppm [6] [%]	inhibition of growth at 10 ppm [7, 8] [%]	inhibition of growth at 10 ppm [7, 9] [%]
CC(C)NC(=O)N1CC(=O)N(c2cc(Cl)cc(Cl)c2)C1=O [Rovral, 3-(3,5-dichlorophenyl)-1-isopropylcarbymoylhydantoin, reference compound]	30	0	60	75	0	100	–	–
CCC=CCSC1CC(=O)N(c2cc(Cl)cc(Cl)c2)C1=O (centres unmarked) [2-(pent-2-en-1-ylmercapto)-succinic acid N--(3,5-dichlorophenyl)imide, reference compound]	10	20	10	40	20	20	80	45
C=CCN1C(=O)CC(OC(=O)C(C)C)C1=O (centres unmarked) [2-isobutyroxysuccinic acid N--allylimide, 2-isobutyroxysuccinic acid N-allylimide]	–	–	–	80	–	–	–	–
C=CCOC1CC(=O)N(c2cc(Cl)cc(Cl)c2)C1=O (centres unmarked) [2-allyloxysuccinic acid N-(3,5-dichlorophenyl)imide]	80	70	80	100	80	100	80	80
CC(=O)OC1CC(=O)N(c2cc(Cl)cc(Cl)c2)C1=O (centres unmarked) [2-acetoxysuccinic acid N-(3,5-dichlorophenyl) imide]	70	100	100	100	100	100	80	70
CCOC1CC(=O)N(c2cc(Cl)cc(Cl)c2)C1=O (centres unmarked) [2-ethoxysuccinic acid N-(3,5-dichlorophenyl)imide]	–	80	80	90	70	100	100	100
CCC(C)N1C(=O)CC(COC)C1=O (centres unmarked) [2-methoxymethylsuccinic acid N-(but-2-yl)imide]	–	–	–	80	–	–	–	–
CCCc1ccc(N2C(=O)CC(OC)C2=O)cc1 (centres unmarked) [2-methoxysuccinic acid N--(4-propylphenyl)imide]	–	–	–	80	–	–	–	–
COC1CC(=O)N(c2cc(Cl)cc(Cl)c2)C1=O (centres unmarked) [2-methoxysuccinic acid N-(3,5-dichlorophenyl) imide]	–	90	80	95	90	100	100	100
COCC1CC(=O)N(c2cccc(Cl)c2)C1=O (centres unmarked) [2-methoxymethylsuccinic acid N-(3-chlorophenyl)imide]	–	–	–	80	–	–	90	80
CC(C)OC1CC(=O)N(c2cc(Cl)cc(Cl)c2)C1=O (centres unmarked) [2-isopropoxysuccinic acid N-(3,5-dichlorophenyl)imide]	50	50	100	100	70	100	100	100
O=C1CC(C2C=CCCC2)C(=O)N1c1cc(Cl)cc(Cl)c1 (centres unmarked) [2-(cyclohex-2-en-1-yl)-succinic acid N--(3,5-dichlorophenyl)imide, reference compound]	30	0	0	0	30	25	0	0
COCC1CC(=O)N(c2cc(Cl)cc(Cl)c2)C1=O (centres unmarked) [2-methoxymethylsuccinic acid N-(3,5-dichlorophenyl)imide]	70	100	100	100	100	100	100	100

From patent US4460782A, “2-Ethoxymethyl and 2-methoxymethyl N-(3,5-dichlorophenyl) succinamides” (Consortium fur Elektrochemische Industrie GmbH, priority 1980, dated 1984)
